The text below walks through data of patent US20210395239A1 (Hoffmann-La Roche Inc., priority 2018, published 2021).

Molecules are shown by their SMILES.

Data set [1] has as its target T1, CYP3A4 (Homo sapiens, UniProt P08684).
T1 construct: tissue BD-Gentest 452117; host or cells: human liver microsomes
The data set is described as follows: CYP inhibition assay in human liver microsome, CYP3A4. Type of data set: in vitro ADME. To be noted: human, human liver microsomes, probe midazolam 5 μM, substrate midazolam 5 μM, third value of 2C9/2D6/3A4. The method, then:
This is a high throughput screening assay used for assessment of reversible inhibition of CYP2C9, CYP2D6, and CYP3A4 activity of test compounds in human liver microsome (HLM) in early discovery stage.
10 mM DMSO stock solutions of test compounds were diluted in DMSO to generate 2 mM intermediate stock solution. 250 nL, of intermediate stock solution were transferred in duplicate into 3 separate 384 well microtitre plates (assay-ready plates). A mixture of HLM and each substrate was made up. 45 μL of HLM substrate mix was then transferred to each well of an assay ready plate and mixed. The negative (solvent) and positive controls (standard inhibitor for each CYP) were included in each assay ready plate. The assay ready plate was warmed to 37° C. in an incubator over 10 minutes. 5 μL pre-warmed NADPH regenerating system was added to each incubation well to start the reaction. Final incubation volume was 50 μL. The assay plate then was placed back in the 37° C. incubator. After incubation (10 minutes for CYP2D6) for 5 minutes, incubates were quenched by addition of 50 μL 100% acetonitrile containing internal standards (400 ng/mL 13C6-4′-OH-Diclofenac, 20 ng/mL D3-Dextrorphan and 20 ng/mL D4-1′OH-Midazolam). The supernatants were collected for RapidFire/MS/MS analysis.
RapidFire online solid phase extraction/sample injection system (Agilent) coupled with API4000 triple quadrupole mass spectrometer (AB Sciex) were used for sample analysis. The mobile phase composed of acetonitrile and water supplemented with 0.1% formic acid. A C4 solid phase extraction cartridge is used for sample separation. MS detection is achieved in positive ion MRM mode.
Peak areas for substrate, metabolite and internal standard are determined using the RapidFire integrator software (version 3.6.12009.12296). Peak area ratios (PAR) of metabolite and internal standard (stable-labelled metabolite) are then calculated. The measurement window for each experiment is then defined:
PAR (0% activity)=average PAR for all incubations containing concentrated inhibitor; Par (100% activity)=average PAR for all incubations containing no inhibitor (DMSO controls); % Activity (test inhibitor)=[PAR (test inhibitor)−PAR (0% activity)]/[PAR (100% activity)−PAR (0% activity)]; % Inhibition (test inhibitor)=100-% Activity (test inhibitor).

For data set [2], the target named is T2, hERG channel (Homo sapiens, UniProt Q12809).
T2 construct: expressed in transfected cells; host or cells: CHO (Chinese hamster ovary)
T2 sequence (Q12809 whole entry): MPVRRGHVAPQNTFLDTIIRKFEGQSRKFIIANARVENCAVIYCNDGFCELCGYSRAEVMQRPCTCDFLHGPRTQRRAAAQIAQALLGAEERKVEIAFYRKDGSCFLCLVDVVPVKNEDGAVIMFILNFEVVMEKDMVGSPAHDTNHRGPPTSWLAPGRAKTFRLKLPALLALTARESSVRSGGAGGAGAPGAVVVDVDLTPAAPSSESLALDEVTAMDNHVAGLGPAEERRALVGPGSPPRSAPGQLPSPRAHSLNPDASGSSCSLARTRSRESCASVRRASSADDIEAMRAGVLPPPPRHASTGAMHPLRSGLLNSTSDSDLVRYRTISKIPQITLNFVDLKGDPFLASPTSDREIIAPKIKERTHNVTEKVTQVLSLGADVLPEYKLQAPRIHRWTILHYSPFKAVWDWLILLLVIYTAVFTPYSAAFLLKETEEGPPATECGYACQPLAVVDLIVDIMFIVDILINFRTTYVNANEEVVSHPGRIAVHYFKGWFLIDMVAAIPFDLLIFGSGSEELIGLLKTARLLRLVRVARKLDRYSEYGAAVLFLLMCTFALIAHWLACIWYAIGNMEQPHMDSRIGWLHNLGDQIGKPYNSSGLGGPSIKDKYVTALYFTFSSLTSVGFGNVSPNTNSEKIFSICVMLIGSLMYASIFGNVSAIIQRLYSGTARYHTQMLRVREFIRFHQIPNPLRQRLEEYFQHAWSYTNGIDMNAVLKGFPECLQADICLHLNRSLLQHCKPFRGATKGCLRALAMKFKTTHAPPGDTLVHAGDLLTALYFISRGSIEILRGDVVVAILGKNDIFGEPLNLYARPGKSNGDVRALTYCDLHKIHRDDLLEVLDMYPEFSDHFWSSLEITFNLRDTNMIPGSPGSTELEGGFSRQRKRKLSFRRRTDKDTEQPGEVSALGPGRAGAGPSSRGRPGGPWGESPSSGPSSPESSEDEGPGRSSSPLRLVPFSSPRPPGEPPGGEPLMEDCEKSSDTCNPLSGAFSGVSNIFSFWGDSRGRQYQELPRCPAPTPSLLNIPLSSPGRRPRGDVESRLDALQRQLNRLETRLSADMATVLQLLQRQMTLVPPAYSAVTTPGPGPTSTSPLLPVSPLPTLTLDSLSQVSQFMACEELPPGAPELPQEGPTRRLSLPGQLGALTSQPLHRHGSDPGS
The data set is described as follows: hERG channel inhibition assay (patch-clamp, CHOhERG cells). To be noted: for IC20: human, CHO cells stably expressing hERG (CHOhERG); for IC20 / IC50: patch-clamp, CHOhERG cells; for hERG IC20/TLR7 IC50 / hERG IC20/TLR8 IC50 / hERG IC20/TLR9 IC50: safety ratio. Type of data set: cell-based. The protocol: hERG Channel Inhibition Assay:
The hERG K^+ channels were cloned in humans and stably expressed in a CHO (Chinese hamster ovary) cell line. CHOhERG cells were used for patch-clamp (voltage-clamp, whole-cell) experiments. Cells were stimulated by a voltage pattern to activate hERG channels and conduct IKhERG currents (rapid delayed outward rectifier potassium current of the hERG channel). After the cells were stabilized for a few minutes, the amplitude and kinetics of IKhERG were recorded at a stimulation frequency of 0.1 Hz, (6 bpm). Thereafter, the test compound was added to the preparation at increasing concentrations. For each concentration, an attempt was made to reach a steady-state effect, usually, this was achieved within 3-10 min at which time the next highest concentration was applied. The amplitude and kinetics of IKhERG are recorded in each concentration of the drug which were compared to the control values (taken as 100%). (references: Redfern W S, Carlsson L, Davis A S, Lynch W G, MacKenzie I, Palethorpe S, Siegl P K, Strang I, Sullivan A T, Wallis R, Camm A J, Hammond T G. 2003; Relationships between preclinical cardiac electrophysiology, clinical QT interval prolongation and torsade de pointes for a broad range of drugs: evidence for a provisional safety margin in drug development. Cardiovasc. Res. 58:32-45, Sanguinetti M C, Tristani-Firouzi M. 2006; hERG potassium channels and cardiac arrhythmia. Nature 440:463-469, Webster R, Leishman D, Walker D. 2002; Towards a drug concentration effect relationship for QT prolongation and torsades de pointes. Curr. Opin. Drug Discov. Devel. 5:116-26).
In general terms: Block of hERG is tested as a sign of cardiac risk.

What is called inhibition is the drop in the measured response relative to a control, in per cent. Usually IC20 stands for the point of the concentration-response curve where the effect stands at 20%. High values mean a need for much substance, low ones an effect from little substance. For orientation: IC50 means the concentration at which inhibition is half-maximal. The low end stands for greater potency, the high end for weaker potency.

T1 sequence (P08684 whole entry): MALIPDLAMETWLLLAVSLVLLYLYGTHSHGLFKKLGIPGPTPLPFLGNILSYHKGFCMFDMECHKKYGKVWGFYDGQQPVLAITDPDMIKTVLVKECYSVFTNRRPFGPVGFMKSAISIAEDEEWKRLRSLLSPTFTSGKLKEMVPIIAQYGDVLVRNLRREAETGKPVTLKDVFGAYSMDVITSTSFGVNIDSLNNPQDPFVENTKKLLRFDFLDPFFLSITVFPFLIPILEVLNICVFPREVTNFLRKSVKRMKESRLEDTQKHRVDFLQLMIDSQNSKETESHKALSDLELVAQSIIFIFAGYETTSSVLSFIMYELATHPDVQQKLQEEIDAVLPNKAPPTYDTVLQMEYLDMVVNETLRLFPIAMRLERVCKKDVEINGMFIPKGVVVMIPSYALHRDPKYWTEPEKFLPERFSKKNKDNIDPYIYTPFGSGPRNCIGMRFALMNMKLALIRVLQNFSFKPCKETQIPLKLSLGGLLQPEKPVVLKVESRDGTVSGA

`[2H]c1ccc2c(N3C[C@H](CN4CCN(c5nc(C)cc(N6C[C@H](OC)[C@@H](N)C6)n5)CC4)O[C@H](C)C3)ccc(C#N)c2n1` [Example 134, 5-[(2S,6R)-2-[[4-[4-[(3S,4S)-3-amino-4-methoxy-pyrrolidin-1-yl]-6-methyl-pyrimidin-2-yl]piperazin-1-yl]methyl]-6-methyl-morpholin-4-yl]-2-deuterio-quinoline-8-carbonitrile]: the inhibition at 5 min, 10 µM in data set [1] stood at 47.5%.

With `CO[C@H]1CN(c2nccc(N3CCN(C[C@H]4CN(c5ccc(C#N)c6nccnc56)C[C@@H](C)O4)CC3)n2)C[C@@H]1N` [Example 99, 8-[(2S,6R)-2-[[4-[2-[(3S,4S)-3-amino-4-methoxy-pyrrolidin-1-yl]pyrimidin-4-yl]piperazin-1-yl]methyl]-6-methyl-morpholin-4-yl]quinoxaline-5-carbonitrile], in data set [2], the 20% effect level (IC20) was put at 9 µM, the IC50 was over 20 µM, the “hERG IC20/TLR7 IC50” value amounted to 818 and the “hERG IC20/TLR8 IC50” value was determined as 9000. For the same molecule, in data set [2], the “hERG IC20/TLR9 IC50” value came out at 142.

For `C[C@@H]1CN(c2ccc(C#N)c3ncccc23)C[C@H](CN2CC(c3cccc(N4CCNCC4)c3)C2)O1` [Example 4, 5-[(2R,6S)-2-methyl-6-[[3-(3-piperazin-1-ylphenyl)azetidin-1-yl]methyl]morpholin-4-yl]quinoline-8-carbonitrile], the inhibition at 5 min, 10 µM in data set [1] stood at 0.5%.

`CO[C@@H]1CN(c2ccc(C3CN(C[C@H]4CN(c5ccc(C#N)n6ncc(F)c56)C[C@@H](C)O4)C3)cn2)C[C@H]1N` [Example 164, 4-[(2S,6R)-2-[[3-[6-[(3R,4R)-3-amino-4-methoxy-pyrrolidin-1-yl]-3-pyridyl]azetidin-1-yl]methyl]-6-methyl-morpholin-4-yl]-3-fluoro-pyrazolo[1,5-a]pyridine-7-carbonitrile]: the inhibition at 5 min, 10 µM in data set [1] turned out to be 30.5%.

For `[2H]c1ccc2c(N3C[C@H](CN4CCN(c5ccc(N[C@H]6CNC[C@H]6F)nc5)CC4)O[C@H](C)C3)ccc(C#N)c2n1` [Example 162, 2-deuterio-5-[(2S,6R)-2-[[4-[6-[[(3S,4R)-4-fluoropyrrolidin-3-yl]amino]-3-pyridyl]piperazin-1-yl]methyl]-6-methyl-morpholin-4-yl]quinoline-8-carbonitrile], the inhibition at 5 min, 10 µM in data set [1] worked out at 42.5%.

For the molecule `C[C@@H]1CN(c2ccc(C#N)c3nccnc23)C[C@H](CN2CCN(c3nccc(N4CC(N)C4)n3)CC2)O1` [Example 118, 8-[(2S,6R)-2-[[4-[4-(3-aminoazetidin-1-yl)pyrimidin-2-yl]piperazin-1-yl]methyl]-6-methyl-morpholin-4-yl]quinoxaline-5-carbonitrile], in data set [2], the IC20 was over 10 µM, the IC50 was over 20 µM, the “hERG IC20/TLR7 IC50” value is on record as over 2500 and the “hERG IC20/TLR8 IC50” value is reported as over 10000. Further, the “hERG IC20/TLR9 IC50” value in data set [2] was over 196.

In the case of `CO[C@@H]1CN(c2nccc(N3CCN(C[C@H]4CN(c5ccc(C#N)c6nccnc56)C[C@@H](C)O4)CC3)n2)C[C@H]1N` [Example 98, 8-[(2S,6R)-2-[[4-[2-[(3R,4R)-3-amino-4-methoxy-pyrrolidin-1-yl]pyrimidin-4-yl]piperazin-1-yl]methyl]-6-methyl-morpholin-4-yl]quinoxaline-5-carbonitrile], in data set [2], the IC20 is over 10 µM, the IC50 is over 20 µM, the “hERG IC20/TLR7 IC50” value is over 1666 and the “hERG IC20/TLR8 IC50” value is given as over 10000. The “hERG IC20/TLR9 IC50” value in data set [2] is over 204.

With `C[C@@H]1CN(c2ccc(C#N)c3ncccc23)C[C@H](CN2CC(c3ccc(N4CCNCC4)cc3)C2)O1` [Example 3, 5-[(2R,6S)-2-methyl-6-[[3-(4-piperazin-1-ylphenyl)azetidin-1-yl]methyl]morpholin-4-yl]quinoline-8-carbonitrile], the inhibition at 5 min, 10 µM in data set [1] came out at 4.5%.

As to `C[C@@H]1CN(c2ccc(C#N)n3nccc23)C[C@H](CN2CC(c3ccc(N4CC(C)(N)C4)cc3)C2)O1` [Example 163, 4-[(2S,6R)-2-[[3-[4-(3-amino-3-methyl-azetidin-1-yl)phenyl]azetidin-1-yl]methyl]-6-methyl-morpholin-4-yl]pyrazolo[1,5-a]pyridine-7-carbonitrile], the inhibition at 5 min, 10 µM in data set [1] came out at 0.5%.

As to `Cc1cc(N2CCN(C[C@H]3CN(c4ccc(C#N)c5nccnc45)C[C@@H](C)O3)CC2)nc(N2CC(N)C2)n1` [Example 112, 8-[(2S,6R)-2-[[4-[2-(3-aminoazetidin-1-yl)-6-methyl-pyrimidin-4-yl]piperazin-1-yl]methyl]-6-methyl-morpholin-4-yl]quinoxaline-5-carbonitrile], in data set [1], the inhibition at 5 min, 10 µM was -5%.

In the case of `[2H]c1ccc2c(N3C[C@H](CN4CCN(c5ccc(N6CC7(CNCCO7)C6)nc5)CC4)O[C@H](C)C3)ccc(C#N)c2n1` [Example 152, 2-deuterio-5-[(2R,6S)-2-methyl-6-[[4-[6-(5-oxa-2,8-diazaspiro[3.5]nonan-2-yl)-3-pyridyl]piperazin-1-yl]methyl]morpholin-4-yl]quinoline-8-carbonitrile], in data set [1], the inhibition at 5 min, 10 µM came out at 35%.

With `Cc1ccc(N2C[C@H](CN3CCN(c4nccc(N5CCNCC5)n4)CC3)O[C@H](C)C2)c2nccnc12` [Example 116, (2R,6S)-2-methyl-4-(8-methylquinoxalin-5-yl)-6-[[4-(4-piperazin-1-ylpyrimidin-2-yl)piperazin-1-yl]methyl]morpholine], the inhibition at 5 min, 10 µM in data set [1] is 8%.

With `Cc1ccc(N2C[C@H](CN3CCN(c4ccnc(N5CCNCC5)n4)CC3)O[C@H](C)C2)c2nccnc12` [Example 117, (2R,6S)-2-methyl-4-(8-methylquinoxalin-5-yl)-6-[[4-(2-piperazin-1-ylpyrimidin-4-yl)piperazin-1-yl]methyl]morpholine], in data set [1], the inhibition at 5 min, 10 µM was determined as 10%.

`C[C@@H]1CN(c2ccc(C#N)n3ncc(F)c23)C[C@H](CN2CC(c3ccc(N4CC(C)(N)C4)cc3)C2)O1` [Example 160, 4-[(2S,6R)-2-[[3-[4-(3-amino-3-methyl-azetidin-1-yl)phenyl]azetidin-1-yl]methyl]-6-methyl-morpholin-4-yl]-3-fluoro-pyrazolo[1,5-a]pyridine-7-carbonitrile]: in data set [1], the inhibition at 5 min, 10 µM amounted to 4.5%.

With `C[C@@H]1CN(c2ccc(C#N)c3nccnc23)C[C@H](CN2CCN(c3ccnc(N4C[C@H](N)[C@@H](F)C4)n3)CC2)O1` [Example 107, 8-[(2S,6R)-2-[[4-[2-[(3S,4S)-3-amino-4-fluoro-pyrrolidin-1-yl]pyrimidin-4-yl]piperazin-1-yl]methyl]-6-methyl-morpholin-4-yl]quinoxaline-5-carbonitrile], in data set [1], the inhibition at 5 min, 10 µM was 34.5%.

Regarding `[2H]c1ccc2c(N3C[C@H](CN4CCN(c5nc(C)cc(N6C[C@@H](N)[C@H](OC)C6)n5)CC4)O[C@H](C)C3)ccc(C#N)c2n1` [Example 144, 5-[(2S,6R)-2-[[4-[4-[(3R,4R)-3-amino-4-methoxy-pyrrolidin-1-yl]-6-methyl-pyrimidin-2-yl]piperazin-1-yl]methyl]-6-methyl-morpholin-4-yl]-2-deuterio-quinoline-8-carbonitrile], in data set [2], the IC20 was over 10 µM, the IC50 is over 20 µM, the “hERG IC20/TLR7 IC50” value is over 909 and the “hERG IC20/TLR8 IC50” value was over 10000. Also, the “hERG IC20/TLR9 IC50” value in data set [2] was over 322.
